Here are results for five compounds from patent US20100197586A1, “USE OF SECRETIN AND OPTIONALLY URODILATIN AS THERAPEUTIC AGENTS” (priority 2007, published 2010).

Where no end group is shown, it is not given here.

One test has as its system HIV-1IIIB. Put plainly: HIV-1 antiviral assay in CEM-SS cells.
A further test has as its system HCMV strain AD169. Put plainly: HCMV plaque assay in MRC-5 cells. As to conditions: for inhibition of HCMV plaque formation as compared to the virus control experiment: 10 micrograms per ml, MRC-5 cells, 7-10 days.
The next test concerns MRSA. Put plainly: Methicillin Resistant Staphylococcus Aureus (MRSA) assay. As to conditions: 10 micrograms per ml; 5×10^5 CFU/mL; combination for instance 0.95 mole peptide 1 and 1.05 mole peptide 2.
A further test concerns HUVEC. Put plainly: Endothelial tube formation assay. It is filed as cell-based, human. As to conditions: 10 micrograms per ml, 20 hours, combination peptide 1:peptide 2 1.10 mole:0.90 mole. From the text:
Positive control was vehicle only.

For test [1], the system named is hepatitis B virus (HBV) ayw strain. Description: HBV experimental assay system (HepG2-2.2.15, TaqMan PCR of HBV DNA). It is filed as cell-based. As to conditions: 10 micrograms per ml; HepG2-2.2.15, six days; combination 0.95 mole peptide 1 and 1.05 mole peptide 2. From the text:
HepG2-2.2.15 is a stable cell line containing the hepatitis B virus (HBV) ayw strain genome (ATCC Cat. No. CRL-11997). Antiviral compounds blocking any late step of viral replication such as transcription, translation, pregenome encapsidation, reverse transcription, particle assembly and release can be identified and characterized using this cell line. In this assay, an active compound will reduce the production of secreted HBV from cells, measured by utilizing real time quantitative PCR (TaqMan) assay to directly and accurately measure HBV DNA copies.
HepG2-2.2.15 cells were plated in 96-well microtiter plates. After 16-24 hours the confluent monolayer of HepG2-2.2.15 cells was washed and the medium was replaced with complete medium containing test peptides—10 micrograms per ml—in duplicate. […] Six days following the initial administration of the peptides, the cell culture supernatants was collected, treated with pronase and DNAse and then used in a real-time quantitative TaqMan PCR assay. The PCR-amplified HBV DNA was detected in real-time by monitoring increases in fluorescence signals that result from the exonucleolytic degradation of a quenched fluorescence probe molecule that hybridizes to the amplified HBV DNA. […] Antiviral activity was calculated from the reduction in HBV DNA levels (% virus control). […]
(Quantitative PCR measures a nucleic acid by following its amplification.)

The subject of another test is Interleukin-4 (IL-4). Put plainly: Th1/Th2 cytokine profiling assay: IL-4. It is filed as cell-based, mouse. As to conditions: 10 micrograms per ml, Ovalbumin-restimulated spleen cells, 72 hours.
Test [2] has as its system Tumor Necrosis Factor-α (TNF-α). Description: Th1/Th2 cytokine profiling assay: TNF-α. It is filed as cell-based, mouse. As to conditions: 10 micrograms per ml; Ovalbumin-restimulated spleen cells, 72 hours; combination 0.95 mole peptide 1 and 1.05 mole peptide 2.
In another test the test system is Interleukin-5 (IL-5). Put plainly: Th1/Th2 cytokine profiling assay: IL-5. As to conditions: 10 micrograms per ml; Ovalbumin-restimulated spleen cells, 72 hours. It is filed as cell-based, mouse.
The subject of the next test is Interleukin-2 (IL-2). Put plainly: Th1/Th2 cytokine profiling assay: IL-2. Type of test: cell-based, mouse. As to conditions: 10 micrograms per ml, 72 hours.
The test system of a further test is Interferon-γ (IFN-γ). Put plainly: Th1/Th2 cytokine profiling assay: IFN-γ. It is filed as cell-based, mouse. As to conditions: 10 micrograms per ml; Ovalbumin-restimulated spleen cells, 72 hours; combination 0.95 mole peptide 1 and 1.05 mole peptide 2.
Test [3] deals with Primary Human endothelial cells (HUVEC). Put plainly: Endothelial cell migration assay. It is filed as cell-based. As to conditions: 10 micrograms per ml, 22 hours.

For the compound `Cc1cn([C@H]2C[C@H](N=[N+]=[N-])[C@@H](CO)O2)c(=O)[nH]c1=O` [AZT], the “antiviral activity of positive control compounds (HIV-1)” value in the test on HIV-1IIIB was “expected levels of antiviral activity”.
Turning to `Nc1nc(O)c2ncn(COC(CO)CO)c2n1` [Ganciclovir, reference compound], the “antiviral activity of positive control compound (HCMV)” value in the test on HCMV strain AD169 (positive control compound) is recorded as “expected levels of antiviral activity”.
In the case of `CC(C)(C)NC(=O)[C@@H]1CN(Cc2cccnc2)CCN1C[C@@H](O)C[C@@H](Cc1ccccc1)C(=O)N[C@H]1c2ccccc2C[C@H]1O` [indinavir], the “antiviral activity of positive control compounds (HIV-1)” value with HIV-1IIIB is “expected levels of antiviral activity”.
As for “His-Ser-Asp-Gly-Thr-Phe-Thr-Ser-Glu-Leu-Ser-Arg-Leu-Arg-Glu-Gly-Ala-Arg-Leu-Gln-Arg-Leu-Leu-Gln-Gly-Leu-Val-NH2 [Peptide 1]”, the “inhibition of HCMV plaque formation as compared to the virus control experiment” value in the test on HCMV strain AD169 was “did not inhibit”. Also, the “inhibition of the growth of MRSA” value in the test with MRSA stood at 100%. The “inhibition of the tube formation of human endothelial cells” value with HUVEC is on record as 33%. Moreover, the “inhibition of HBV replication as compared to the virus control infection” value in [1] was determined as 27.6%. Besides, the “change of the production of IL-4 in murine spleen cells” value with Interleukin-4 (IL-4) is given as “did not significantly change”. In test [2], the “change of the production of TNF-alpha in murine spleen cells” value is given as “did not significantly change”. The “decrease of the production of IL-5” value in the test with Interleukin-5 (IL-5) was determined as 45.8%. Further, the “decrease of the production of IL-2 in murine spleen cells” value with Interleukin-2 (IL-2) (Ovalbumin-restimulated spleen cells of Balb/c mice) was 77.7%. For the same compound, the “change of the production of IFN-γ in murine spleen cells” value in the test with Interferon-γ (IFN-γ) was “did not significantly change”. For the same compound, the “inhibition of the migration of human endothelial cells” value in test [3] is given as 2%.
As for “Thr-Ala-Pro-Arg-Ser-Leu-Arg-Arg-Ser-Ser-Cys-Phe-Gly-Gly-Arg-Met-Asp-Arg-Ile-Gly-Ala-Gln-Ser-Gly-Leu-Gly-Cys-Asn-Ser-Phe-Arg-Tyr-OH (TAPRSLRRSSCFGGRMDRIGAQSGLGCNSFRY-OH; ends and bridges not checked) [Peptide 2, Urodilatin]”, in the test with HCMV strain AD169, the “inhibition of HCMV plaque formation as compared to the virus control experiment” value is “did not inhibit”. The “inhibition of the growth of MRSA” value in the test with MRSA came to 100%. The “inhibition of the tube formation of human endothelial cells” value with HUVEC is 9%. In [1], the “inhibition of HBV replication as compared to the virus control infection” value is reported as “did not inhibit”. In the test with Interleukin-4 (IL-4), the “suppression of the production of IL-4 in murine spleen cells” value stood at 30.4%. Besides, the “induction of the production of IL-4” value in the test on Interleukin-4 (IL-4) (combination 0.95 mole peptide 1 and 1.05 mole peptide 2) amounted to 59.7%. Also, the “change of the production of TNF-alpha in murine spleen cells” value in test [2] is “did not significantly change”. The “change of the production of IL-2 in murine spleen cells” value in the test on Interleukin-2 (IL-2) (Ovalbumin-restimulated spleen cells, combination 0.95 mole peptide 1 and 1.05 mole peptide 2) is given as “did not significantly change”. In the test with Interferon-γ (IFN-γ), the “change of the production of IFN-γ in murine spleen cells” value is given as “did not significantly change”. Besides, the “inhibition of the migration of human endothelial cells” value in test [3] amounted to 10%.
